Blank lines part the entries; values can stand above or below the compound they belong to.
Legend:
Format in all cases: cell-based
STAT3 = target: T1, STAT3 (Homo sapiens, UniProt P40763); assay: STAT3 reporter gene assay (luciferase), LNCaP stable cell line (pSTAT3-TA-luc), IL-6 stimulation
T1 construct: plasmid pSTAT3-TA-luc), which contains a stably operating STAT3 promoter; endogenous in cells
In short: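 Cytotoxicity was run on a duplicate plate with CellTiter-Glo, while the other plate gave luciferase read-outs from lysed LNCaP pSTAT3-TA-luc reporter cells. Cells were treated with graded compound concentrations plus IL-6 (10 ng/mL final) for 24–48 h in 3% DCC-FBS medium. Unstimulated and stimulated wells served as negative and positive controls.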

LNCaP = assay: Cell growth inhibition assay, prostate cancer cell line LNCaP (medium with 10 ng/mL IL-6); conditions: Homo sapiens, medium supplemented with 10 ng/mL of IL-6, 10,000 cells/well
DU-145 = assay: Cell growth inhibition assay, prostate cancer cell line DU-145; conditions: Homo sapiens, DU-145 prostate cancer cell line
In short: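 Viability by CellTiter-Glo luminescence after 72–96 h of compound dosing at 37° C. under 5% CO2; DU-145 and HCT116 seeded at 3,000 cells/well, SW626 at 5,000 cells/well.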

T1 sequence (P40763 whole entry): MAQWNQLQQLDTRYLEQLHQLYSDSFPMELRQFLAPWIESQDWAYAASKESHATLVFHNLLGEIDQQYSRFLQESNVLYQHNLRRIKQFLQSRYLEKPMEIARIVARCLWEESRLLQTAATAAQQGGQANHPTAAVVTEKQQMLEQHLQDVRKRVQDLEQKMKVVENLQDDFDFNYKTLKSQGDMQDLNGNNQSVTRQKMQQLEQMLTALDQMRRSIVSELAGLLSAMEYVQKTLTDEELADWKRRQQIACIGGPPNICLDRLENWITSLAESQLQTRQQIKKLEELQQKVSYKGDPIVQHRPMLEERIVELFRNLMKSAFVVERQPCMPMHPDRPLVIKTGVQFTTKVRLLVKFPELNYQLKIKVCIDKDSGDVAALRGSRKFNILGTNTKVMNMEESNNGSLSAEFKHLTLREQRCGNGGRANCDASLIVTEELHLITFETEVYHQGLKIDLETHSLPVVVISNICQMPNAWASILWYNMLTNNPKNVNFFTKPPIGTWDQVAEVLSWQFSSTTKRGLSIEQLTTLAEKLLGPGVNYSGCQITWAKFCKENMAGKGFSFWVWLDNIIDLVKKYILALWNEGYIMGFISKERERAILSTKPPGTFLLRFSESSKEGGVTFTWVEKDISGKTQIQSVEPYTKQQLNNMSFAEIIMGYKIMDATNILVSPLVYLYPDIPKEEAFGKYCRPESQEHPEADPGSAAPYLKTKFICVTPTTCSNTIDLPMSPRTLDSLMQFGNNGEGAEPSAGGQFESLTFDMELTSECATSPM

SMILES: Cc1csc(C(C)(C)c2cc(Cl)cc(NC(=O)c3cc4cc(NS(C)(=O)=O)c(Cl)cc4s3)c2)c1 [Example 181, 6-chloro-N-(3-chloro-5-(2-(4-methylthiophen-2-yl)propan-2-yl)phenyl)-5-(methylsulfonamido)benzo[b]thiophene-2-carboxamide]
IC50 (STAT3): 0.005 µM
IC50 (LNCaP): 0.006 µM
IC50 (DU-145): 0.005 µM

SMILES: C[S+]([O-])c1ccc(C(C)(C)c2cc(Cl)cc(NC(=O)c3cc4cc(NS(C)(=O)=O)ccc4s3)c2)cc1 (stereo not drawn) [Example 160, N-(3-chloro-5-(2-(4-(methylsulfinyl)phenyl)propan-2-yl)phenyl)-5-(methylsulfonamido)benzo[b]thiophene-2-carboxamide]
IC50 (STAT3): 3.3 µM
IC50 (LNCaP): > 1.1 µM
IC50 (DU-145): > 1.1 µM

SMILES: CS(=O)(=O)Nc1ccc2sc(C(=O)Nc3cc(Cl)cc(-c4ccc(F)cc4F)c3)c(O)c2c1 [Example 335, N-(5-chloro-2′,4′-difluoro-[1,1′-biphenyl]-3-yl)-3-hydroxy-5-(methylsulfonamido)benzo[b]thiophene-2-carboxamide]
IC50 (STAT3): 5.7 µM
IC50 (LNCaP): > 1.1 µM
IC50 (DU-145): > 1.1 µM

SMILES: CC(C)Oc1cc(OC(F)(F)F)cc(C(C)(C)c2cc(Cl)cc(NC(=O)C3=Cc4cc(NS(C)(=O)=O)ccc4S3(=O)=O)c2)c1 [Example 222, N-(3-chloro-5-(2-(3-isopropoxy-5-(trifluoromethoxy)phenyl)propan-2-yl)phenyl)-5-(methylsulfonamido)benzo[b]thiophene-2-carboxamide 1,1-dioxide]
IC50 (STAT3): 6.1 µM
IC50 (LNCaP): > 1.1 µM
IC50 (DU-145): > 1.1 µM

SMILES: CC(C)(c1ccncc1)c1cc(Cl)cc(NC(=O)c2cc3cc(NS(C)(=O)=O)ccc3s2)c1 [Example 191, N-(3-chloro-5-(2-(pyridin-4-yl)propan-2-yl)phenyl)-5-(methylsulfonamido)benzo[b]thiophene-2-carboxamide]
IC50 (STAT3): 0.54 µM
IC50 (LNCaP): 2.2 µM
IC50 (DU-145): 0.74 µM

SMILES: Cn1cccc1-c1cc(Cl)cc(NC(=O)c2cc3cc(NS(C)(=O)=O)ccc3s2)c1 [Example 334, N-(3-chloro-5-(1-methyl-1H-pyrrol-2-yl)phenyl)-5-(methylsulfonamido)benzo[b]thiophene-2-carboxamide]
IC50 (STAT3): 0.096 µM
IC50 (LNCaP): 0.14 µM
IC50 (DU-145): 0.059 µM

SMILES: CC(C)Oc1cc(OC(F)(F)F)cc(C(C)(C)c2cc(Cl)cc(NC(=O)c3cc4ccc(NS(C)(=O)=O)nc4[nH]3)c2)c1 [Example 100, N-(3-chloro-5-(2-(3-isopropoxy-5-(trifluoromethoxy)phenyl)propan-2-yl)phenyl)-6-(methylsulfonamido)-1H-pyrrolo[2,3-b]pyridine-2-carboxamide]
IC50 (STAT3): 0.042 µM
IC50 (LNCaP): > 10 µM
IC50 (DU-145): 0.33 µM

SMILES: CS(=O)(=O)Nc1ccc2sc(C(=O)Nc3cc(Cl)cc(-c4ccc(F)cc4F)n3)cc2c1 [Example 331, N-(4-chloro-6-(2,4-difluorophenyl)pyridin-2-yl)-5-(methylsulfonamido)benzo[b]thiophene-2-carboxamide]
IC50 (STAT3): 0.051 µM
IC50 (LNCaP): 0.15 µM
IC50 (DU-145): 0.034 µM

SMILES: CN(c1ccc2sc(C(=O)Nc3cc(Cl)cc(C(C)(C)c4ccc(Cl)cc4)c3)cc2c1)S(C)(=O)=O [Example 221, N-(3-chloro-5-(2-(4-chlorophenyl)propan-2-yl)phenyl)-5-(N-methylmethylsulfonamido)benzo[b]thiophene-2-carboxamide]
IC50 (STAT3): 0.011 µM
IC50 (LNCaP): 0.011 µM
IC50 (DU-145): 0.008 µM

SMILES: CCn1cccc1C(C)(C)c1cc(Cl)cc(NC(=O)c2cc3cc(NS(C)(=O)=O)ccc3s2)c1 [Example 187, N-(3-chloro-5-(2-(1-ethyl-1H-pyrrol-2-yl)propan-2-yl)phenyl)-5-(methylsulfonamido)benzo[b]thiophene-2-carboxamide]
IC50 (STAT3): 0.11 µM
IC50 (LNCaP): 0.1 µM
IC50 (DU-145): 0.042 µM

SMILES: CS(=O)(=O)Nc1ccc2sc(C(=O)Nc3cc(Cl)cc(-c4cncc(Cl)n4)c3)cc2c1 [Example 339, N-(3-chloro-5-(6-chloropyrazin-2-yl)phenyl)-5-(methylsulfonamido)benzo[b]thiophene-2-carboxamide]
IC50 (STAT3): 0.76 µM
IC50 (LNCaP): 0.56 µM
IC50 (DU-145): 0.31 µM

SMILES: CC(C)(c1cc(Cl)cc(NC(=O)c2cc3cc(NS(C)(=O)=O)c(Cl)cc3s2)c1)c1ccc(C#N)s1 [Example 186, 6-chloro-N-(3-chloro-5-(2-(5-cyanothiophen-2-yl)propan-2-yl)phenyl)-5-(methylsulfonamido)benzo[b]thiophene-2-carboxamide]
IC50 (STAT3): 0.1 µM
IC50 (LNCaP): 0.039 µM
IC50 (DU-145): 0.023 µM

More lines, now with the values ahead:

IC50 (STAT3): 0.014 µM
IC50 (LNCaP): 0.008 µM
IC50 (DU-145): 0.006 µM
SMILES: CS(=O)(=O)Nc1cc2cc(C(=O)Nc3cc(Cl)cc(Oc4cccc(OC(F)(F)F)c4)c3)sc2cc1Cl [Example 479, 6-chloro-N-(3-chloro-5-(3-(trifluoromethoxy)phenoxy)phenyl)-5-(methylsulfonamido)benzo[b]thiophene-2-carboxamide]

IC50 (STAT3): 0.14 µM
IC50 (LNCaP): 0.24 µM
IC50 (DU-145): 0.11 µM
SMILES: CS(=O)(=O)Nc1ccc2sc(C(=O)Nc3cc(Cl)cc(Oc4ccc(F)c(Cl)c4)c3)cc2c1 [Example 461, N-(3-chloro-5-(3-chloro-4-fluorophenoxy)phenyl)-5-(methylsulfonamido)benzo[b]thiophene-2-carboxamide]

IC50 (STAT3): 0.021 µM
IC50 (LNCaP): 0.022 µM
IC50 (DU-145): 0.005 µM
SMILES: CS(=O)(=O)Nc1cc2cc(C(=O)Nc3cc(Cl)cc(Oc4ccc(F)c(Cl)c4)c3)sc2cc1Cl [Example 476, 6-chloro-N-(3-chloro-5-(3-chloro-4-fluorophenoxy)phenyl)-5-(methylsulfonamido)benzo[b]thiophene-2-carboxamide]

IC50 (STAT3): 0.19 µM
IC50 (LNCaP): 0.22 µM
IC50 (DU-145): 0.19 µM
SMILES: CS(=O)(=O)Nc1ccc2sc(C(=O)Nc3cc(Cl)cc(Oc4cccc(C(F)(F)F)c4)c3)cc2c1 [Example 455, N-(3-chloro-5-(3-(trifluoromethyl)phenoxy)phenyl)-5-(methylsulfonamido)benzo[b]thiophene-2-carboxamide]

IC50 (STAT3): 0.15 µM
IC50 (LNCaP): 0.23 µM
IC50 (DU-145): 0.13 µM
SMILES: CS(=O)(=O)Nc1ccc2sc(C(=O)Nc3cc(Cl)cc(Oc4ccc(F)c(F)c4)c3)cc2c1 [Example 460, N-(3-chloro-5-(3,4-difluorophenoxy)phenyl)-5-(methylsulfonamido)benzo[b]thiophene-2-carboxamide]

IC50 (STAT3): 0.014 µM
IC50 (LNCaP): 0.02 µM
IC50 (DU-145): 0.01 µM
SMILES: CS(=O)(=O)Nc1cc2cc(C(=O)Nc3cc(Cl)cc(Oc4cc(F)cc(Cl)c4)c3)sc2cc1Cl [Example 483, 6-chloro-N-(3-chloro-5-(3-chloro-5-fluorophenoxy)phenyl)-5-(methylsulfonamido)benzo[b]thiophene-2-carboxamide]

IC50 (STAT3): 0.014 µM
IC50 (LNCaP): 0.039 µM
IC50 (DU-145): 0.008 µM
SMILES: CC(C)(c1cc(Cl)cc(NC(=O)c2cc3cc(NS(C)(=O)=O)ccc3s2)c1)c1cc(OC2CC2)cc(OC(F)(F)F)c1 [Example 79, N-(3-chloro-5-(2-(3-cyclopropoxy-5-(trifluoromethoxy)phenyl)propan-2-yl)phenyl)-5-(methylsulfonamido)benzo[b]thiophene-2-carboxamide]

IC50 (STAT3): 0.1 µM
IC50 (LNCaP): 0.015 µM
IC50 (DU-145): 0.015 µM
SMILES: CS(=O)(=O)Nc1cc2cc(C(=O)Nc3cc(Cl)cc(Oc4ccc(Cl)s4)c3)sc2cc1Cl [Example 473, 6-chloro-N-(3-chloro-5-((5-chlorothiophen-2-yl)oxy)phenyl)-5-(methylsulfonamido)benzo[b]thiophene-2-carboxamide]

IC50 (STAT3): 0.022 µM
IC50 (LNCaP): 0.018 µM
IC50 (DU-145): 0.012 µM
SMILES: CS(=O)(=O)Nc1cc2cc(C(=O)Nc3cc(Cl)cc(Oc4ccc(F)cc4)c3)sc2cc1Cl [Example 478, 6-chloro-N-(3-chloro-5-(4-fluorophenoxy)phenyl)-5-(methylsulfonamido)benzo[b]thiophene-2-carboxamide]

IC50 (STAT3): 0.12 µM
IC50 (LNCaP): 0.079 µM
IC50 (DU-145): 0.063 µM
SMILES: CS(=O)(=O)Nc1ccc2sc(C(=O)Nc3cc(Cl)cc(Oc4ccc(Cl)c(F)c4)c3)cc2c1 [Example 466, N-(3-chloro-5-(4-chloro-3-fluorophenoxy)phenyl)-5-(methylsulfonamido)benzo[b]thiophene-2-carboxamide]

IC50 (STAT3): 0.1 µM
IC50 (LNCaP): 0.37 µM
IC50 (DU-145): 0.13 µM
SMILES: CS(=O)(=O)Nc1cc2cc(C(=O)Nc3cc(Cl)cc(Oc4cncs4)c3)sc2cc1Cl [Example 472, 6-chloro-N-(3-chloro-5-(thiazol-5-yloxy)phenyl)-5-(methylsulfonamido)benzo[b]thiophene-2-carboxamide]

IC50 (STAT3): 0.025 µM
IC50 (LNCaP): 0.013 µM
IC50 (DU-145): 0.01 µM
SMILES: CS(=O)(=O)Nc1cc2cc(C(=O)Nc3cc(Cl)cc(Oc4ccc(Cl)c(F)c4)c3)sc2cc1Cl [Example 477, 6-chloro-N-(3-chloro-5-(4-chloro-3-fluorophenoxy)phenyl)-5-(methylsulfonamido)benzo[b]thiophene-2-carboxamide]

IC50 (STAT3): 0.024 µM
IC50 (LNCaP): 0.022 µM
IC50 (DU-145): 0.01 µM
SMILES: CS(=O)(=O)Nc1cc2cc(C(=O)Nc3cc(Cl)cc(Oc4ccc(Cl)cc4)c3)sc2cc1Cl [Example 449, 6-chloro-N-(3-chloro-5-(4-chlorophenoxy)phenyl)-5-(methylsulfonamido)benzo[b]thiophene-2-carboxamide]

IC50 (STAT3): 0.36 µM
IC50 (LNCaP): 0.79 µM
IC50 (DU-145): 0.59 µM
SMILES: CS(=O)(=O)Nc1ccc2sc(C(=O)Nc3cc(Cl)cc(Oc4cccc(C#N)c4)c3)cc2c1 [Example 459, N-(3-chloro-5-(3-cyanophenoxy)phenyl)-5-(methylsulfonamido)benzo[b]thiophene-2-carboxamide]
